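Results reflect a 48-hour exposure of cells in 96-well plates to compound at five concentrations. At the GI50, growth is halved. The concentration for full growth arrest is given as TGI.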
What was measured:
Assay in all cases: NCI anticancer screen, dose series, 48 h
SF-295 CNS = tested on: SF-295 CNS
HCT-15 colon = tested on: HCT-15 colon
ACHN renal = tested on: ACHN renal
HL-60(TB) leukemia = tested on: HL-60(TB) leukemia
M14 melanoma = tested on: M14 melanoma
NCI-H23 lung = tested on: NCI-H23 lung
SK-MEL-28 melanoma = tested on: SK-MEL-28 melanoma
K-562 leukemia = tested on: K-562 leukemia
TK-10 renal = tested on: TK-10 renal
U251 CNS = tested on: U251 CNS
NCI-H522 lung = tested on: NCI-H522 lung
RPMI-8226 leukemia = tested on: RPMI-8226 leukemia
SNB-19 CNS = tested on: SNB-19 CNS
HS 578T breast = tested on: HS 578T breast
COLO 205 colon = tested on: COLO 205 colon
MCF7 breast = tested on: MCF7 breast
MOLT-4 leukemia = tested on: MOLT-4 leukemia
LOX IMVI melanoma = tested on: LOX IMVI melanoma
SW-620 colon = tested on: SW-620 colon
OVCAR-5 ovarian = tested on: OVCAR-5 ovarian
SF-539 CNS = tested on: SF-539 CNS
HOP-62 NSCLC = tested on: HOP-62 NSCLC
CAKI-1 renal = tested on: CAKI-1 renal
OVCAR-3 ovarian = tested on: OVCAR-3 ovarian
SK-MEL-5 melanoma = tested on: SK-MEL-5 melanoma
SN12C renal = tested on: SN12C renal
NCI-H460 lung = tested on: NCI-H460 lung
SF-268 CNS = tested on: SF-268 CNS
EKVX NSCLC = tested on: EKVX NSCLC
786-0 renal = tested on: 786-0 renal
PC-3 prostate = tested on: PC-3 prostate
SK-MEL-2 melanoma = tested on: SK-MEL-2 melanoma
SR leukemia = tested on: SR leukemia
HOP-92 NSCLC = tested on: HOP-92 NSCLC
T-47D breast = tested on: T-47D breast
OVCAR-4 ovarian = tested on: OVCAR-4 ovarian
SK-OV-3 ovarian = tested on: SK-OV-3 ovarian
UACC-62 melanoma = tested on: UACC-62 melanoma
BT-549 breast = tested on: BT-549 breast
NCI-H226 lung = tested on: NCI-H226 lung
OVCAR-8 ovarian = tested on: OVCAR-8 ovarian
UACC-257 melanoma = tested on: UACC-257 melanoma
DU-145 prostate = tested on: DU-145 prostate
HCC-2998 colon = tested on: HCC-2998 colon
KM12 colon = tested on: KM12 colon
IGROV1 ovarian = tested on: IGROV1 ovarian
MDA-MB-231 breast = tested on: MDA-MB-231 breast
MALME-3M melanoma = tested on: MALME-3M melanoma
MDA-MB-435 = tested on: MDA-MB-435
CCRF-CEM leukemia = tested on: CCRF-CEM leukemia
A549 NSCLC = tested on: A549 NSCLC
RXF 393 renal = tested on: RXF 393 renal
HCT-116 colon = tested on: HCT-116 colon
SNB-75 CNS = tested on: SNB-75 CNS
NCI/ADR-RES ovarian = tested on: NCI/ADR-RES ovarian
UO-31 renal = tested on: UO-31 renal
HT29 colon = tested on: HT29 colon
A498 renal = tested on: A498 renal

O=c1cc(-c2ccccc2)[nH]c2ccc(N3CCCCC3)cc12
TGI (SF-295 CNS): 0.0474 µM
TGI (HCT-15 colon): > 100 µM
TGI (ACHN renal): > 100 µM
TGI (HL-60(TB) leukemia): < 0.028 µM
TGI (M14 melanoma): > 100 µM
TGI (NCI-H23 lung): 6.86 µM
TGI (SK-MEL-28 melanoma): > 100 µM
TGI (K-562 leukemia): > 100 µM
TGI (TK-10 renal): > 100 µM
TGI (U251 CNS): > 45.9 µM
TGI (NCI-H522 lung): > 100 µM
TGI (RPMI-8226 leukemia): > 100 µM
TGI (SNB-19 CNS): > 100 µM
TGI (HS 578T breast): > 100 µM
TGI (COLO 205 colon): > 100 µM
TGI (MCF7 breast): > 67.9 µM
TGI (MOLT-4 leukemia): > 100 µM
TGI (LOX IMVI melanoma): > 100 µM
TGI (SW-620 colon): > 100 µM
TGI (OVCAR-5 ovarian): > 100 µM
TGI (SF-539 CNS): 0.549 µM
TGI (HOP-62 NSCLC): 47.4 µM
TGI (CAKI-1 renal): > 100 µM
TGI (OVCAR-3 ovarian): 2.89 µM
TGI (SK-MEL-5 melanoma): 4.2 µM
TGI (SN12C renal): > 100 µM
TGI (NCI-H460 lung): > 100 µM
TGI (SF-268 CNS): > 53.2 µM
TGI (EKVX NSCLC): > 100 µM
TGI (786-0 renal): 43.1 µM
TGI (PC-3 prostate): > 100 µM
TGI (SK-MEL-2 melanoma): > 100 µM
TGI (SR leukemia): > 100 µM
TGI (HOP-92 NSCLC): 53.6 µM
TGI (T-47D breast): > 100 µM
TGI (OVCAR-4 ovarian): > 100 µM
TGI (SK-OV-3 ovarian): > 59.7 µM
TGI (UACC-62 melanoma): > 100 µM
TGI (BT-549 breast): > 100 µM
TGI (NCI-H226 lung): 0.0706 µM
TGI (OVCAR-8 ovarian): > 44.9 µM
TGI (UACC-257 melanoma): > 100 µM
TGI (DU-145 prostate): > 30.3 µM
TGI (HCC-2998 colon): > 22.5 µM
TGI (KM12 colon): 0.0909 µM
TGI (IGROV1 ovarian): > 100 µM
TGI (MDA-MB-231 breast): > 100 µM
TGI (MALME-3M melanoma): > 100 µM

Cc1cc(C(=O)NC(C)(C)C)cc(C#Cc2ccc3c4c(oc3c2)C(C)(C)c2cc(NS(C)(=O)=O)ccc2C4=O)n1
GI50 (MDA-MB-435): 0.518 µM
TGI (MDA-MB-435): 21.1 µM
GI50 (SF-295 CNS): 2.12 µM
TGI (SF-295 CNS): 5.64 µM
GI50 (HCT-15 colon): 1.93 µM
TGI (HCT-15 colon): > 100 µM
GI50 (ACHN renal): 1.78 µM
TGI (ACHN renal): > 100 µM
GI50 (CCRF-CEM leukemia): 2.12 µM
TGI (CCRF-CEM leukemia): > 100 µM
GI50 (M14 melanoma): 1.26 µM
TGI (M14 melanoma): 18.6 µM
GI50 (NCI-H23 lung): 2.63 µM
TGI (NCI-H23 lung): > 100 µM
GI50 (SK-MEL-28 melanoma): 1.93 µM
TGI (SK-MEL-28 melanoma): > 100 µM
GI50 (A549 NSCLC): 3.01 µM
TGI (A549 NSCLC): > 100 µM
GI50 (K-562 leukemia): 2.31 µM
TGI (K-562 leukemia): > 100 µM
GI50 (TK-10 renal): 3.99 µM
TGI (TK-10 renal): > 100 µM
GI50 (U251 CNS): 3.1 µM
TGI (U251 CNS): > 100 µM
GI50 (NCI-H522 lung): 4.54 µM
TGI (NCI-H522 lung): > 100 µM
GI50 (RPMI-8226 leukemia): 1.11 µM
TGI (RPMI-8226 leukemia): 4.67 µM
GI50 (SNB-19 CNS): 3.23 µM
TGI (SNB-19 CNS): > 100 µM
GI50 (COLO 205 colon): 1.34 µM
TGI (COLO 205 colon): 5.5 µM
GI50 (MCF7 breast): 1.76 µM
TGI (MCF7 breast): > 100 µM
GI50 (MOLT-4 leukemia): 2.39 µM
TGI (MOLT-4 leukemia): > 100 µM
GI50 (LOX IMVI melanoma): 2.59 µM
TGI (LOX IMVI melanoma): > 100 µM
GI50 (SW-620 colon): 1.03 µM
TGI (SW-620 colon): > 100 µM
GI50 (OVCAR-5 ovarian): 1.33 µM
TGI (OVCAR-5 ovarian): > 100 µM
GI50 (HOP-62 NSCLC): 2.31 µM
TGI (HOP-62 NSCLC): > 100 µM
GI50 (RXF 393 renal): 0.535 µM
TGI (RXF 393 renal): 3.34 µM
GI50 (CAKI-1 renal): 2.51 µM
TGI (CAKI-1 renal): > 100 µM
GI50 (OVCAR-3 ovarian): 2.82 µM
TGI (OVCAR-3 ovarian): 31.8 µM
GI50 (SK-MEL-5 melanoma): 1.84 µM
TGI (SK-MEL-5 melanoma): 5.31 µM
GI50 (SN12C renal): 1.95 µM
TGI (SN12C renal): > 100 µM
GI50 (HCT-116 colon): 1.69 µM
TGI (HCT-116 colon): > 100 µM
GI50 (NCI-H460 lung): 2.31 µM
TGI (NCI-H460 lung): > 100 µM
GI50 (SF-268 CNS): 3.34 µM
TGI (SF-268 CNS): > 100 µM
GI50 (EKVX NSCLC): 4.98 µM
TGI (EKVX NSCLC): > 100 µM
GI50 (786-0 renal): 1.7 µM
TGI (786-0 renal): 12.5 µM
GI50 (PC-3 prostate): 2.96 µM
TGI (PC-3 prostate): > 100 µM
GI50 (SK-MEL-2 melanoma): 1.98 µM
TGI (SK-MEL-2 melanoma): 7.87 µM
GI50 (SNB-75 CNS): 1.22 µM
TGI (SNB-75 CNS): 22.4 µM
GI50 (NCI/ADR-RES ovarian): 2.86 µM
TGI (NCI/ADR-RES ovarian): > 100 µM
GI50 (HOP-92 NSCLC): 0.102 µM
TGI (HOP-92 NSCLC): 2.44 µM
GI50 (T-47D breast): 2.41 µM
TGI (T-47D breast): > 100 µM
GI50 (UO-31 renal): 1.2 µM
TGI (UO-31 renal): > 100 µM
GI50 (OVCAR-4 ovarian): 3.2 µM
TGI (OVCAR-4 ovarian): > 100 µM
GI50 (UACC-62 melanoma): 1.4 µM
TGI (UACC-62 melanoma): > 100 µM
GI50 (BT-549 breast): 1.26 µM
TGI (BT-549 breast): 8.1 µM
GI50 (OVCAR-8 ovarian): 3.09 µM
TGI (OVCAR-8 ovarian): > 100 µM
GI50 (DU-145 prostate): 3.17 µM
TGI (DU-145 prostate): > 100 µM
GI50 (HCC-2998 colon): 3.06 µM
TGI (HCC-2998 colon): > 100 µM
TGI (KM12 colon): 40.7 µM
GI50 (HT29 colon): 1.2 µM
TGI (HT29 colon): > 100 µM
GI50 (A498 renal): 2.1 µM
TGI (A498 renal): > 100 µM
GI50 (IGROV1 ovarian): 2.59 µM
TGI (IGROV1 ovarian): > 100 µM
GI50 (MDA-MB-231 breast): 3.49 µM
TGI (MDA-MB-231 breast): > 100 µM
GI50 (MALME-3M melanoma): 1.53 µM
TGI (MALME-3M melanoma): > 100 µM

COc1cc2c(/C=C3/C(=O)Nc4ccc(O)cc43)c(Cl)[nH]c2cc1C
TGI (MDA-MB-435): 0.0441 µM
TGI (SF-295 CNS): 13.5 µM
TGI (HCT-15 colon): 1.17 µM
TGI (ACHN renal): 1.64 µM
TGI (HL-60(TB) leukemia): 4.08 µM
TGI (M14 melanoma): 2.02 µM
TGI (NCI-H23 lung): 3.78 µM
TGI (SK-MEL-28 melanoma): 0.0526 µM
TGI (A549 NSCLC): 32.9 µM
TGI (K-562 leukemia): 16 µM
TGI (TK-10 renal): 26.1 µM
TGI (U251 CNS): 2.99 µM
TGI (NCI-H522 lung): 19.5 µM
TGI (RPMI-8226 leukemia): 1.34 µM
TGI (SNB-19 CNS): 22.3 µM
TGI (HS 578T breast): 28.5 µM
TGI (COLO 205 colon): 0.894 µM
TGI (MCF7 breast): > 100 µM
TGI (MOLT-4 leukemia): 0.387 µM
TGI (LOX IMVI melanoma): 11.9 µM
TGI (SW-620 colon): 20 µM
TGI (OVCAR-5 ovarian): 30.8 µM
TGI (SF-539 CNS): 0.185 µM
TGI (HOP-62 NSCLC): 4.55 µM
TGI (RXF 393 renal): 30.5 µM
TGI (CAKI-1 renal): 3.19 µM
TGI (SK-MEL-5 melanoma): 3.29 µM
TGI (SN12C renal): 3.06 µM
TGI (HCT-116 colon): 6.61 µM
TGI (NCI-H460 lung): 19.2 µM
TGI (SF-268 CNS): 26.4 µM
TGI (EKVX NSCLC): 26.8 µM
TGI (786-0 renal): 16.7 µM
TGI (PC-3 prostate): 22.2 µM
TGI (SK-MEL-2 melanoma): 29.2 µM
TGI (SNB-75 CNS): 20 µM
TGI (HOP-92 NSCLC): 42.6 µM
TGI (T-47D breast): 7.85 µM
TGI (UO-31 renal): 21.1 µM
TGI (OVCAR-4 ovarian): 3.38 µM
TGI (SK-OV-3 ovarian): 2.48 µM
TGI (UACC-62 melanoma): 3.08 µM
TGI (BT-549 breast): 3.84 µM
TGI (NCI-H226 lung): 3.77 µM
TGI (OVCAR-8 ovarian): 7.77 µM
TGI (UACC-257 melanoma): 21.9 µM
TGI (DU-145 prostate): 7.55 µM
TGI (KM12 colon): 5.35 µM
TGI (HT29 colon): 5.42 µM
TGI (A498 renal): 24.6 µM
TGI (IGROV1 ovarian): 20.5 µM
TGI (MDA-MB-231 breast): 4.25 µM
TGI (MALME-3M melanoma): 1.38 µM

— PubChem BioAssay (NCI)
